The text below walks through data of US8207176B2 (Glaxo Group Limited, priority 2005, dated 2012).

This assay relates to influx of neutrophils to the lung in LPS-challenged rats. The assay is described as follows: Rat LPS neutrophilia model. Conditions: intratracheal, LPS aerosol 100 ug/ml 15 min, lavage 4 hours later, in at least one of the range of conditions tested, significant p<0.05, nonsignificant p>0.05. The format is in vivo. The method, then:
The effect of compounds on the influx of neutrophils to the lung in LPS-challenged rats is evaluated as follows. The test compound is suspended in one of the following solutions: 0.5% tween 80/PBS, 0.5% tween 80/saline, 10% EtOH/saline (with pH adjusted to 2.0, or 8.0 with HCl, or unadjusted), Saline @ pH 2.0, 6.5 or 8.0, 0.5% Tragacanth, 1% DMSO/20% Encapsin/Saline, or acidified 5% Tragacanth. The suspension process may be aided by the use of a glass homogenizer. For intratracheal administration, the animals are anesthetized with inhaled isoflurane and placed in a supine position, the trachea is intubated with a steel gavage needle (1.5 inch, 22 gauge, small ball) or a Penn-Century Microsprayer Aerosolizer (model IA-IB) and 200 ul of dosing solution is delivered. The animals are visually monitored during the recovery process, which typically occurs within two minutes. It is noted that the test compounds may be alternatively administered via the microsprayer in a dry powder blend with a suitable excipient, such as lactose.
Rats treated with compound or vehicle (15 min-24 hours pretreatment) are exposed to an LPS aerosol (100 ug/ml) for 15 min. Four hours later the rats are euthanized with pentobarbital (100 mg/kg, i.p.) and the airways are lavaged with 5 washes of 5 ml of phosphate buffered saline. The harvested cells are stained (Diffquick) and counted to determine total and differential cell data. […] Inhibition of neutrophil levels relative to no compound controls is calculated based on the differential counts.
The data is obtained as % inhibition using a particular concentration and pretreat time.

Counter-ions that a name gives are not always drawn.

On to `CCN(CC)CCCNc1nc(-c2cc(C(=O)Nc3ccccc3)ccc2C)c2ccc(=O)n(-c3c(F)cccc3F)c2n1` [Example 147, 3-[2-{[3-(diethylamino)propyl]amino}-8-(2,6-difluorophenyl)-7-oxo-7,8-dihydropyrido[2,3-d]pyrimidin-4-yl]-4-methyl-N-phenylbenzamide], for which the “inhibition of neutrophilia (neutrophil levels in lung lavage relative to no compound controls)” value is “statistically nonsignificant inhibition”.
The entry for `Cc1ccc(C(=O)Nc2nccs2)cc1-c1nc(NC2CC(C)(C)NC(C)(C)C2)nc2c1ccc(=O)n2-c1c(F)cccc1F` [Example 67, 3-{8-(2,6-difluorophenyl)-7-oxo-2-[(2,2,6,6-tetramethyl-4-piperidinyl)amino]-7,8-dihydropyrido[2,3-d]pyrimidin-4-yl}-4-methyl-N-1,3-thiazol-2-ylbenzamide] is “statistically nonsignificant inhibition”; for `CCN(CC)CCCNc1nc(-c2cc(C(=O)N[C@@H](C)c3ccccc3)ccc2C)c2ccc(=O)n(-c3c(F)cccc3F)c2n1` [Example 149, 3-[2-{[3-(diethylamino)propyl]amino}-8-(2,6-difluorophenyl)-7-oxo-7,8-dihydropyrido[2,3-d]pyrimidin-4-yl]-4-methyl-N-[(1S)-1-phenylethyl]benzamide] it is “inactive”.
Under `Cc1ccc(C(=O)NC2CCCC2)cc1-c1nc(N2CCC(N3CCC(C)CC3)CC2)nc2c1ccc(=O)n2-c1c(F)cccc1F` [Example 169, N-cyclopentyl-3-[8-(2,6-difluorophenyl)-2-(4-methyl-1,4′-bipiperidin-1′-yl)-7-oxo-7,8-dihydropyrido[2,3-d]pyrimidin-4-yl]-4-methylbenzamide] stands “statistically nonsignificant inhibition”; under `Cc1ccc(C(=O)Nc2nccs2)cc1-c1nc(NCCCNC(C)C)nc2c1ccc(=O)n2-c1c(F)cccc1F` [Example 101, 3-[8-(2,6-difluorophenyl)-2-({3-[(1-methylethyl)amino]propyl}amino)-7-oxo-7,8-dihydropyrido[2,3-d]pyrimidin-4-yl]-4-methyl-N-1,3-thiazol-2-ylbenzamide], “statistically significant inhibition”; under `Cc1ccc(C(=O)Nc2ccc(F)cc2)cc1-c1nc(N(C)CCN(C)C)nc2c1ccc(=O)n2-c1c(F)cccc1F` [Example 99, 3-{8-(2,6-difluorophenyl)-2-[[2-(dimethylamino)ethyl](methyl)amino]-7-oxo-7,8-dihydropyrido[2,3-d]pyrimidin-4-yl}-N-(4-fluorphenyl)-4-methylbenzamide], “statistically nonsignificant inhibition”.
The entry for `CCN(CC)CCCNc1nc(-c2cc(C(=O)NC3CC3)cc(F)c2C)c2ccc(=O)n(-c3c(F)cccc3F)c2n1` [Example 185, N-cyclopropyl-3-[2-{[3-(diethylamino)propyl]amino}-8-(2,6-difluorophenyl)-7-oxo-7,8-dihydropyrido[2,3-d]-pyrimidin-4-yl]-5-fluoro-4-methylbenzamide] is “statistically nonsignificant inhibition”; for `Cc1ccc(C(=O)NC2CCC2)cc1-c1nc(N2CCC(N3CCC(C)CC3)CC2)nc2c1ccc(=O)n2-c1c(F)cccc1F` [Example 175, N-cyclobutyl-3-[8-(2,6-difluorophenyl)-2-(4-methyl-1,4′-bipiperidin-1′-yl)-7-oxo-7,8-dihydropyrido[2,3-d]pyrimidin-4-yl]-4-methylbenzamide] it is “inactive”; for `CCN(CC)CCCNc1nc(-c2cc(C(=O)NCC3CC3)ccc2C)c2ccc(=O)n(-c3c(F)cccc3F)c2n1` [Example 138, N-(cyclopropylmethyl)-3-[2-{[3-(diethylamino)propyl]amino}-8-(2,6-difluorophenyl)-7-oxo-7,8-dihydropyrido[2,3-d]pyridin-4-yl]-4-methylbenzamide trifluoroacetate] it is “statistically nonsignificant inhibition”.
`Cc1ccc(C(=O)NC2CC2)cc1-c1nc(N2CCC(N)CC2)nc2c1ccc(=O)n2-c1c(F)cccc1F` [Example 22, 3-[2-(4-amino-1-piperidinyl)-8-(2,6-difluorophenyl)-7-oxo-7,8-dihydropyrido[2,3-d]pyrimidin-4-yl]-N-cyclopropyl-4-methylbenzamide]: the “inhibition of neutrophilia (neutrophil levels in lung lavage relative to no compound controls)” value is “statistically significant inhibition”.
The entry for `Cc1ccc(C(=O)Nc2ccc(F)cc2)cc1-c1nc(NCCN(C)C(=O)OC(C)(C)C)nc2c1ccc(=O)n2-c1c(F)cccc1F` [Example 95, 1,1-dimethylethyl (2-{[8-(2,6-difluorophenyl)-4-(5-{[(4-fluorophenyl)amino]carbonyl}-2-methylphenyl)-7-oxo-7,8-dihydropyrido[2,3-d]pyrimidin-2-yl]amino}ethyl)methylcarbamate] is “statistically nonsignificant inhibition”; for `CCN(CC)CCCNc1nc(-c2cc(C(=O)NCC3CCCCC3)ccc2C)c2ccc(=O)n(-c3c(F)cccc3F)c2n1` [Example 135, N-(cyclohexylmethyl)-3-[2-{[3-(diethylamino)propyl]amino}-8-(2,6-difluorophenyl)-7-oxo-7,8-dihydropyrido[2,3-d]pyrimidin-4-yl]-4-methylbenzamidetrifluoroacetate] it is “inactive”; for `CNCCNc1nc(-c2cc(C(=O)NCCc3ccccc3)ccc2C)c2ccc(=O)n(-c3c(F)cccc3F)c2n1` [Example 29, 3-(8-(2,6-difluorophenyl)-2-{[2-(methylamino)ethyl]amino}-7-oxo-7,8-dihydropyrido[2,3-d]pyrimidin-4-yl)-4-methyl-N-(2-phenylethyl)benzamide] it is “statistically significant inhibition”.
The entry for `Cc1ccc(C(=O)NCC2CC2)cc1-c1nc(N2CCC(N)CC2)nc2c1ccc(=O)n2-c1c(F)cccc1F` [Example 27, 3-[2-(4-amino-1-piperidinyl)-8-(2,6-difluorophenyl)-7-oxo-7,8-dihydropyrido[2,3-d]pyrimidin-4-yl]-N-(cyclopropylmethyl)-4-methylbenzamide] is “statistically significant inhibition”; for `Cc1ccc(C(=O)NC2CC2)cc1-c1nc(NCc2ncc[nH]2)nc2c1ccc(=O)n2-c1c(F)cccc1F` [Example 23, N-cyclopropyl-3-{8-(2,6-difluorophenyl)-2-[(1H-imidazol-2-ylmethyl)amino]-7-oxo-7,8-dihydropyrido[2,3-d]pyrimidin-4-yl}-4-methylbenzamide] it is “statistically nonsignificant inhibition”; for `Cc1ccc(C(=O)Nc2nccs2)cc1-c1nc(N(C)CCCN(C)C)nc2c1ccc(=O)n2-c1c(F)cccc1F` [Example 107, 3-{8-(2,6-difluorophenyl)-2-[[3-(dimethylamino)propyl](methyl)amino]-7-oxo-7,8-dihydropyrido[2,3-d]pyrimidin-4-yl}-4-methyl-N-1,3-thiazol-2-ylbenzamide] it is “statistically significant inhibition”.
As to `Cc1ccc(C(=O)NCc2ccccc2)cc1-c1nc(N2CCC(N)CC2)nc2c1ccc(=O)n2-c1c(F)cccc1F` [Example 71, 3-[2-(4-amino-1-piperidinyl)-8-(2,6-difluorophenyl)-7-oxo-7,8-dihydropyrido[2,3-d]pyrimidin-4-yl]-4-methyl-N-(phenylmethyl)benzamide], the “inhibition of neutrophilia (neutrophil levels in lung lavage relative to no compound controls)” value is reported as “statistically nonsignificant inhibition”.
The entry for `CCCNC(=O)c1ccc(C)c(-c2nc(N3CCC(N4CCC(C)CC4)CC3)nc3c2ccc(=O)n3-c2c(F)cccc2F)c1` [Example 166, 3-[8-(2,6-difluorophenyl)-2-(4-methyl-1,4′-bipiperidin-1′-yl)-7-oxo-7,8-dihydropyrido[2,3-d]pyrimidin-4-yl]-4-methyl-N-propylbenzamide] is “statistically significant inhibition”; for `Cc1ccc(C(=O)Nc2nccs2)cc1-c1nc(NCCCNC(C)(C)C)nc2c1ccc(=O)n2-c1c(F)cccc1F` [Example 102, 3-[8-(2,6-difluorophenyl)-2-({3-[(1,1-dimethylethyl)amino]propyl}amino)-7-oxo-7,8-dihydropyrido[2,3-d]pyrimidin-4-yl]-4-methyl-N-1,3-thiazol-2-ylbenzamide] it is “statistically nonsignificant inhibition”.
Under `Cc1ccc(C(=O)NCC(F)(F)F)cc1-c1nc(N2CCC(N3CCC(C)CC3)CC2)nc2c1ccc(=O)n2-c1c(F)cccc1F` [Example 172, 3-[8-(2,6-difluorophenyl)-2-(4-methyl-1,4′-bipiperidin-1′-yl)-7-oxo-7,8-dihydropyrido[2,3-d]pyrimidin-4-yl]-4-methyl-N-(2,2,2-trifluoroethyl)benzamide] stands “inactive”.
